# Measurements: publication PMC6008465 (British Journal of Cancer, 2018)
# How the values were obtained:
# [1] = tested on: BRAF-mutated human cancer xenograft models; conditions: Q4D x3 schedule; cited from earlier work
# [2] = tested on: patients with advanced solid tumours; assay: Phase 1 Part A (dose escalation): safety, DLT, MTD; type: in vivo, human
# Description: The primary objectives of this phase 1 study were to evaluate the safety, tolerability, and MTD of once-weekly (Schedule I) and twice-weekly (Schedule II) dosing. Secondary objectives included evaluation of the PK profile of E6201. […] Toxicity was managed by dose interruption, reduction, and/or discontinuation. Only Cycle 1 adverse events (AEs) were evaluable as DLTs. Based on AEs reported at 480 mg/m^2 and 400 mg/m^2, the protocol was amended to include up to 6 additional toxicity-evaluable patients at 320 mg/m^2, to confirm this as the MTD. All ongoing patients could continue at 320 mg/m^2, regardless of initial starting dose.
# Safety was assessed by monitoring AEs, serious AEs (SAEs), laboratory parameters, vital signs, 12-lead electrocardiograms (ECGs), Eastern Cooperative Oncology Group performance status, and symptom-directed physical and neurologic examination findings. AEs were graded by investigators based on the National Cancer Institute Common Terminology Criteria for Adverse Events, version 3.[16]
compound,measurement,setting,value
"CCNc1cc(O)c2c(c1)/C=C/C[C@H](O)[C@H](O)C(=O)/C=C\[C@@H](C)[C@H](C)OC2=O [E6201, (3S,4R,5Z,8S,9S,11E)-14-(ethylamino)-8,9,16-trihydroxy-3,4-dimethyl-3,4,9,19-tetrahydro-1H-2-benzoxacyclotetradecine-1,7 (8H)-dione]",Duration of significant and prolonged anti-tumour activity from first dose,[1],> 20 days
same,Patients who discontinued treatment due to SAEs,[2]; Part A,Two
same,Patients with grade 1/2 eye disorders,[2]; Part A (160 and 320 mg/m^2 groups),two
same,"Nausea TEAE, patients","[2]; Part A overall, 9 patients",36%
same,"Abdominal pain TEAE incidence, All grades","[2]; Part A, 20 mg/m^2 (n=4)",1 (25.0) n (%)
same,"Abdominal pain TEAE incidence, G≥3","[2]; Part A, 20 mg/m^2 (n=4)",0 n (%)
same,"Constipation TEAE incidence, All grades","[2]; Part A, 20 mg/m^2 (n=4)",1 (25.0) n (%)
same,"Constipation TEAE incidence, G≥3","[2]; Part A, 20 mg/m^2 (n=4)",0 n (%)
same,"Decreased appetite TEAE incidence, All grades","[2]; Part A, 20 mg/m^2 (n=4)",1 (25.0) n (%)
same,"Decreased appetite TEAE incidence, G≥3","[2]; Part A, 20 mg/m^2 (n=4)",0 n (%)
same,"Fatigue TEAE incidence, All grades","[2]; Part A, 20 mg/m^2 (n=4)",1 (25.0) n (%)
same,"Fatigue TEAE incidence, G≥3","[2]; Part A, 20 mg/m^2 (n=4)",0 n (%)
same,"Hypokalemia TEAE incidence, All grades","[2]; Part A, 20 mg/m^2 (n=4)",1 (25.0) n (%)
same,"Hypokalemia TEAE incidence, G≥3","[2]; Part A, 20 mg/m^2 (n=4)",0 n (%)
same,"Nausea TEAE incidence, All grades","[2]; Part A, 20 mg/m^2 (n=4)",1 (25.0) n (%)
same,"Nausea TEAE incidence, G≥3","[2]; Part A, 20 mg/m^2 (n=4)",0 n (%)
same,"Peripheral edema TEAE incidence, All grades","[2]; Part A, 20 mg/m^2 (n=4)",1 (25.0) n (%)
same,"Peripheral edema TEAE incidence, G≥3","[2]; Part A, 20 mg/m^2 (n=4)",0 n (%)
same,"Vomiting TEAE incidence, All grades","[2]; Part A, 20 mg/m^2 (n=4)",0 n (%)
same,"Vomiting TEAE incidence, G≥3","[2]; Part A, 20 mg/m^2 (n=4)",0 n (%)
same,"Abdominal pain TEAE incidence, All grades","[2]; Part A, 40 mg/m^2 (n=3)",1 (33.3) n (%)
same,"Abdominal pain TEAE incidence, G≥3","[2]; Part A, 40 mg/m^2 (n=3)",0 n (%)
same,"Constipation TEAE incidence, All grades","[2]; Part A, 40 mg/m^2 (n=3)",0 n (%)
same,"Constipation TEAE incidence, G≥3","[2]; Part A, 40 mg/m^2 (n=3)",0 n (%)
same,"Decreased appetite TEAE incidence, All grades","[2]; Part A, 40 mg/m^2 (n=3)",0 n (%)
same,"Decreased appetite TEAE incidence, G≥3","[2]; Part A, 40 mg/m^2 (n=3)",0 n (%)
same,"Fatigue TEAE incidence, All grades","[2]; Part A, 40 mg/m^2 (n=3)",0 n (%)
same,"Fatigue TEAE incidence, G≥3","[2]; Part A, 40 mg/m^2 (n=3)",0 n (%)
same,"Hypokalemia TEAE incidence, All grades","[2]; Part A, 40 mg/m^2 (n=3)",1 (33.3) n (%)
same,"Hypokalemia TEAE incidence, G≥3","[2]; Part A, 40 mg/m^2 (n=3)",0 n (%)
same,"Nausea TEAE incidence, All grades","[2]; Part A, 40 mg/m^2 (n=3)",1 (33.3) n (%)
same,"Nausea TEAE incidence, G≥3","[2]; Part A, 40 mg/m^2 (n=3)",0 n (%)
same,"Peripheral edema TEAE incidence, All grades","[2]; Part A, 40 mg/m^2 (n=3)",0 n (%)
same,"Peripheral edema TEAE incidence, G≥3","[2]; Part A, 40 mg/m^2 (n=3)",0 n (%)
same,"Vomiting TEAE incidence, All grades","[2]; Part A, 40 mg/m^2 (n=3)",1 (33.3) n (%)
same,"Vomiting TEAE incidence, G≥3","[2]; Part A, 40 mg/m^2 (n=3)",0 n (%)
same,"Abdominal pain TEAE incidence, All grades","[2]; Part A, 80 mg/m^2 (n=3)",0 n (%)
same,"Abdominal pain TEAE incidence, G≥3","[2]; Part A, 80 mg/m^2 (n=3)",0 n (%)
same,"Constipation TEAE incidence, All grades","[2]; Part A, 80 mg/m^2 (n=3)",1 (33.3) n (%)
same,"Constipation TEAE incidence, G≥3","[2]; Part A, 80 mg/m^2 (n=3)",0 n (%)
same,"Decreased appetite TEAE incidence, All grades","[2]; Part A, 80 mg/m^2 (n=3)",0 n (%)
same,"Decreased appetite TEAE incidence, G≥3","[2]; Part A, 80 mg/m^2 (n=3)",0 n (%)
same,"Fatigue TEAE incidence, All grades","[2]; Part A, 80 mg/m^2 (n=3)",0 n (%)
same,"Fatigue TEAE incidence, G≥3","[2]; Part A, 80 mg/m^2 (n=3)",0 n (%)
same,"Hypokalemia TEAE incidence, All grades","[2]; Part A, 80 mg/m^2 (n=3)",0 n (%)
same,"Hypokalemia TEAE incidence, G≥3","[2]; Part A, 80 mg/m^2 (n=3)",0 n (%)
same,"Nausea TEAE incidence, All grades","[2]; Part A, 80 mg/m^2 (n=3)",0 n (%)
same,"Nausea TEAE incidence, G≥3","[2]; Part A, 80 mg/m^2 (n=3)",0 n (%)
same,"Peripheral edema TEAE incidence, All grades","[2]; Part A, 80 mg/m^2 (n=3)",1 (33.3) n (%)
same,"Peripheral edema TEAE incidence, G≥3","[2]; Part A, 80 mg/m^2 (n=3)",0 n (%)
same,"Vomiting TEAE incidence, All grades","[2]; Part A, 80 mg/m^2 (n=3)",0 n (%)
same,"Vomiting TEAE incidence, G≥3","[2]; Part A, 80 mg/m^2 (n=3)",0 n (%)
same,"Abdominal pain TEAE incidence, All grades","[2]; Part A, 160 mg/m^2 (n=3)",1 (33.3) n (%)
same,"Abdominal pain TEAE incidence, G≥3","[2]; Part A, 160 mg/m^2 (n=3)",1 (33.3) n (%)
same,"Constipation TEAE incidence, All grades","[2]; Part A, 160 mg/m^2 (n=3)",1 (33.3) n (%)
same,"Constipation TEAE incidence, G≥3","[2]; Part A, 160 mg/m^2 (n=3)",0 n (%)
same,"Decreased appetite TEAE incidence, All grades","[2]; Part A, 160 mg/m^2 (n=3)",1 (33.3) n (%)
same,"Decreased appetite TEAE incidence, G≥3","[2]; Part A, 160 mg/m^2 (n=3)",0 n (%)
same,"Fatigue TEAE incidence, All grades","[2]; Part A, 160 mg/m^2 (n=3)",1 (33.3) n (%)
same,"Fatigue TEAE incidence, G≥3","[2]; Part A, 160 mg/m^2 (n=3)",0 n (%)
same,"Hypokalemia TEAE incidence, All grades","[2]; Part A, 160 mg/m^2 (n=3)",0 n (%)
same,"Hypokalemia TEAE incidence, G≥3","[2]; Part A, 160 mg/m^2 (n=3)",0 n (%)
same,"Nausea TEAE incidence, All grades","[2]; Part A, 160 mg/m^2 (n=3)",1 (33.3) n (%)
same,"Nausea TEAE incidence, G≥3","[2]; Part A, 160 mg/m^2 (n=3)",0 n (%)
same,"Peripheral edema TEAE incidence, All grades","[2]; Part A, 160 mg/m^2 (n=3)",1 (33.3) n (%)
same,"Peripheral edema TEAE incidence, G≥3","[2]; Part A, 160 mg/m^2 (n=3)",0 n (%)
same,"Vomiting TEAE incidence, All grades","[2]; Part A, 160 mg/m^2 (n=3)",1 (33.3) n (%)
same,"Vomiting TEAE incidence, G≥3","[2]; Part A, 160 mg/m^2 (n=3)",0 n (%)
same,"Abdominal pain TEAE incidence, All grades","[2]; Part A, 320 mg/m^2 (n=7)",2 (28.6) n (%)
same,"Abdominal pain TEAE incidence, G≥3","[2]; Part A, 320 mg/m^2 (n=7)",1 (14.3) n (%)
same,"Constipation TEAE incidence, All grades","[2]; Part A, 320 mg/m^2 (n=7)",2 (28.6) n (%)
same,"Constipation TEAE incidence, G≥3","[2]; Part A, 320 mg/m^2 (n=7)",0 n (%)
same,"Decreased appetite TEAE incidence, All grades","[2]; Part A, 320 mg/m^2 (n=7)",2 (28.6) n (%)
same,"Decreased appetite TEAE incidence, G≥3","[2]; Part A, 320 mg/m^2 (n=7)",1 (14.3) n (%)
same,"Fatigue TEAE incidence, All grades","[2]; Part A, 320 mg/m^2 (n=7)",3 (42.9) n (%)
